Assay results published in patent publication US5364944A, “Substituted benzoylbenzene-, biphenyl- and 2-oxazole- alkanoic acid compounds” (American Home Products Corporation, priority 1993, dated 1994).

Tests used:
[1] = tested on: 5-lipoxygenase in human whole blood; test: Inhibition of 5-lipoxygenase in human whole blood (LTB4); type: cell-based
Summary of the method: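 Donor whole blood was preincubated with compound (0.1% final DMSO) 10 min at 37° C, then stimulated with 30 μM A23187 for 20 min at 27° C and stopped with EGTA on ice. Plasma LTB4 quantified by RIA or ELISA as ng/10^6 neutrophils; effects given as percent change from control.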

[2] = tested on: biosynthesis of LTB4 by isolated human neutrophils; test: Inhibition of LTB4 biosynthesis by isolated human neutrophils (PMN); type: cell-based; settings: Neutrophil, A23187 stimulated human PMN, read-out: % Inhibition of LTB4 Synthesis
Method: The ability of the compounds of the invention to inhibit the biosynthesis of LTB4 by isolated human neutrophils is evaluated in the following assay, which is carried out in this manner.
A leukocyte enriched blood sample obtained from a healthy donor is procured by leukophoresis using a Haemonetics model 30+ blood processor (Biological Specialties, Inc., Lansdale, Pa.). The top "platelet-rich" layer is removed after a low speed spin (35×g, 15 min, 25° C.) of the sample. The remaining cell suspension is centrigued (400×g, 10 min, 25° C.) to sediment the remaining cells. The supernatant is discarded and the cell pellet resuspended in 120 ml HBSS (without Ca^++ /Mg++). The cell suspension is subjected to ficoll-hypaque sedimentation (Histopaque 1077, 400×g, 30 min, 25° C.). Contaminating erythrocytes are lysed by hypotonic shock (1 min). The cells are then washed once with 40 ml of HBSS and resuspended with HBS S (without Ca^++ /Mg^++) to a concentration of 2.5×10^7 cells/ml for further use. Greater than 95% purity is obtained as assessed by microscopic examination.
One ml of human PMN (2.5×10^7 cells/ml) is incubated with vehicle or drugs (10 μl) for 10 min at 30° C. After preincubation, an equal volume of HBSS (1 ml) containing 2.4 mM CaCl2, 6 μM calcium ionophore A23187 and 50 μCi[^3 H]-acetate is then incubated at 30° C. for 15 minutes. An aliquot (100 μl) of the reaction mixture is taken out and mixed with 900 μl of 15% ethanol. LTB4 is extracted by using solid phase extraction on reverse phase C18 columns to remove excess [^3 H]-acetate and PAF. The C18 column is prewashed once with 2 ml of ethanol and water. The sample aliquot is acidified with 0.1 N HCl to pH3 before applying to the column. The column is then washed with 2 ml of water followed by 2 ml of 15% ethanol and 2 ml of petroleum ether to remove excess labeled acetate. The sample is eluted with 2 ml of ethyl acetate. The collected samples are dried with nitrogen and resuspended in 0.5 ml RIA buffer. The quantity of LTB4 in the sample is obtained from RIA determination.
Data presented are the mean +/- s.d. of the values relative to control A23187 stimulated cells for each experiment assayed in triplicate. Percent inhibition when used is calculated as:
% Inhibition=100-[(×.div.Control )×100]
Dose response analysis is performed by non-linear regression analysis for curve fitting and IC50 determination.

CC(C(=O)N(C)O)c1ccc(-c2ccc(OCc3csc(-c4ccccc4)n3)cc2)cc1 (stereo not drawn) [Example 21, N-Hydroxy-N,α-dimethyl-4'-[(2-phenylthiazol-4-yl)methoxy][1,1'-biphenyl]-4-acetamide]
IC50 [1]: 7.8 µM
% Inhibition of LTB4 ([1]; at 25 μM): 85%
inhibition at 2.5 µM [2]: 91.2%
